Laboratory results taken from patent publication US20080214606A1, “Methods for the Identification and Use of Compounds Suitable for the Treatment of Drug Resistant Cancer Cells” (The Government of the United States of America as …, priority 2004, published 2008).

Columns and labels:
ABCD1 = target: T1, ABCD1 (Homo sapiens, UniProt P33897); test: Correlation of ABCD1 expression with drug sensitivity across the NCI-60; format: cell-based; conditions: Pearson correlation of ABCD1 expression with sensitivity of the 60 cell lines; 1429 compounds; inverse, p < 0.0001
T1 construct: profiled in 60 diverse cancer cell lines (the NCI-60) using real-time RT-PCR; endogenous in cells; host or cells: NCI-60 human cancer cell lines
Procedure: (§1) Expression levels are measured by real-time quantitative RT-PCR using the LightCycler RNA Amplification SYBR Green kit and a LightCycler machine (Roche Biochemicals, Indianapolis, Ind.). […] When possible, the amplicons are designed to encompass exon-intron boundaries to avoid amplification of genomic DNA. Since the Syber Green assay detects accumulation of double stranded DNA, primers are selected (from a battery consisting of about 200 primers) that amplified a single product of the correct size.
(§2) During PCR amplification, fluorescence emission is measured and recorded in real time by the LightCycler. Crossing point values are calculated, using the LightCycler software package, by the Fit Points analysis method, with baseline fluorescence set at 1. The SyberGreen assay measures accumulation of double-stranded products, and the appearance of primer dimers limits quantitation at high cycle numbers. The specificity of amplified products is verified by melting-curve analysis and agarose gel electrophoresis (not shown). The raw results are expressed as number of cycles to reach the crossing point. If the desired product is not detected, the corresponding value is adjusted to crossing points indicating no expression. To assess the contribution of experimental artifacts, selected cell lines are assessed in replicate.

ABCC2 = target: T2, ABCC2 (Homo sapiens, UniProt Q92887); test: Correlation of ABCC2 expression with drug sensitivity across the NCI-60; format: cell-based; conditions: Pearson correlation of ABCC2 expression with sensitivity of the 60 cell lines; 1429 compounds; inverse, p < 0.0001
T2 construct: profiled in 60 diverse cancer cell lines (the NCI-60) using real-time RT-PCR; endogenous in cells; host or cells: NCI-60 human cancer cell lines
Procedure: as §1, §2

ABCB1 = ABCB1 (Homo sapiens, UniProt P08183); test: Correlation of ABCB1 expression with drug sensitivity across the NCI-60
Procedure: Expression levels are measured by real-time quantitative RT-PCR using the LightCycler RNA Amplification SYBR Green kit and a LightCycler machine (Roche Biochemicals, Indianapolis, Ind.). Specific oligonucleotide probes are designed for each of the ABC transporters using DNAStar Primer Select (DNASTAR Inc.), and they may be synthesized at Lofstrand Laboratories (Gaithersburg, Md.). When possible, the amplicons are designed to encompass exon-intron boundaries to avoid amplification of genomic DNA. Since the Syber Green assay detects accumulation of double stranded DNA, primers are selected (from a battery consisting of about 200 primers) that amplified a single product of the correct size.
RT-PCR is carried out on 150 ng total RNA, in the presence of 250 nM specific primers. Following reverse transcription (20 min at 50° C.), the PCR reaction consists of 45 cycles of denaturation (15 sec at 95° C.), annealing (30 sec at 58° C.), and elongation (30 sec at 72° C.). No-template (water) reaction mixtures are prepared as negative controls.
During PCR amplification, fluorescence emission is measured and recorded in real time by the LightCycler. Crossing point values are calculated, using the LightCycler software package, by the Fit Points analysis method, with baseline fluorescence set at 1. The SyberGreen assay measures accumulation of double-stranded products, and the appearance of primer dimers limits quantitation at high cycle numbers. […] The raw results are expressed as number of cycles to reach the crossing point. If the desired product is not detected, the corresponding value is adjusted to crossing points indicating no expression. To assess the contribution of experimental artifacts, selected cell lines are assessed in replicate.
Both sets are available at http://discover.nci.nih.gov. The two are combined to form a joint dataset that includes 1429 compounds.
To determine quantitatively how well the 47 genes cluster the cell lines by their tissues of origin, a statistical method is employed wherein the kappa statistic is used to indicate how well the observed clusters correspond to the nine tissue-of-origin classifications. […] To control the overall false type 1 error rate, both a step-down procedure (Westfall and Young, 1993, Resampling-Based Multiple Testing: Examples and Methods for p-value Adjustment (New York: Wiley)) and a step-up procedure (Reiner et al., 2003, Bioinformatics 19:368-375) were employed to adjust for multiple testing of all 47 genes simultaneously. In the Benjamini-Hochberg procedure the p-values are computed in the standard way by permutation, assuming that all distributions are exchangeable: the number of values in the permuted data with correlations over a threshold, divided by the number of compounds and by the number of permutations. In this analysis, the False Discovery Rate (q-value) at which each compound would be declared was calculated using the step-up procedure for positively correlated test statistics (again true because all correlations being compared are computed against the same ABC gene): in this procedure the first q-value for the largest correlation is the Bonferroni-corrected p-value for that gene; then further q-values are calculated as qj=max(pj*1429/j, qj-1). This procedure limits the expected proportion of false positives in the list 1, . . . , j to at most qj.

T2 sequence (Q92887 whole entry): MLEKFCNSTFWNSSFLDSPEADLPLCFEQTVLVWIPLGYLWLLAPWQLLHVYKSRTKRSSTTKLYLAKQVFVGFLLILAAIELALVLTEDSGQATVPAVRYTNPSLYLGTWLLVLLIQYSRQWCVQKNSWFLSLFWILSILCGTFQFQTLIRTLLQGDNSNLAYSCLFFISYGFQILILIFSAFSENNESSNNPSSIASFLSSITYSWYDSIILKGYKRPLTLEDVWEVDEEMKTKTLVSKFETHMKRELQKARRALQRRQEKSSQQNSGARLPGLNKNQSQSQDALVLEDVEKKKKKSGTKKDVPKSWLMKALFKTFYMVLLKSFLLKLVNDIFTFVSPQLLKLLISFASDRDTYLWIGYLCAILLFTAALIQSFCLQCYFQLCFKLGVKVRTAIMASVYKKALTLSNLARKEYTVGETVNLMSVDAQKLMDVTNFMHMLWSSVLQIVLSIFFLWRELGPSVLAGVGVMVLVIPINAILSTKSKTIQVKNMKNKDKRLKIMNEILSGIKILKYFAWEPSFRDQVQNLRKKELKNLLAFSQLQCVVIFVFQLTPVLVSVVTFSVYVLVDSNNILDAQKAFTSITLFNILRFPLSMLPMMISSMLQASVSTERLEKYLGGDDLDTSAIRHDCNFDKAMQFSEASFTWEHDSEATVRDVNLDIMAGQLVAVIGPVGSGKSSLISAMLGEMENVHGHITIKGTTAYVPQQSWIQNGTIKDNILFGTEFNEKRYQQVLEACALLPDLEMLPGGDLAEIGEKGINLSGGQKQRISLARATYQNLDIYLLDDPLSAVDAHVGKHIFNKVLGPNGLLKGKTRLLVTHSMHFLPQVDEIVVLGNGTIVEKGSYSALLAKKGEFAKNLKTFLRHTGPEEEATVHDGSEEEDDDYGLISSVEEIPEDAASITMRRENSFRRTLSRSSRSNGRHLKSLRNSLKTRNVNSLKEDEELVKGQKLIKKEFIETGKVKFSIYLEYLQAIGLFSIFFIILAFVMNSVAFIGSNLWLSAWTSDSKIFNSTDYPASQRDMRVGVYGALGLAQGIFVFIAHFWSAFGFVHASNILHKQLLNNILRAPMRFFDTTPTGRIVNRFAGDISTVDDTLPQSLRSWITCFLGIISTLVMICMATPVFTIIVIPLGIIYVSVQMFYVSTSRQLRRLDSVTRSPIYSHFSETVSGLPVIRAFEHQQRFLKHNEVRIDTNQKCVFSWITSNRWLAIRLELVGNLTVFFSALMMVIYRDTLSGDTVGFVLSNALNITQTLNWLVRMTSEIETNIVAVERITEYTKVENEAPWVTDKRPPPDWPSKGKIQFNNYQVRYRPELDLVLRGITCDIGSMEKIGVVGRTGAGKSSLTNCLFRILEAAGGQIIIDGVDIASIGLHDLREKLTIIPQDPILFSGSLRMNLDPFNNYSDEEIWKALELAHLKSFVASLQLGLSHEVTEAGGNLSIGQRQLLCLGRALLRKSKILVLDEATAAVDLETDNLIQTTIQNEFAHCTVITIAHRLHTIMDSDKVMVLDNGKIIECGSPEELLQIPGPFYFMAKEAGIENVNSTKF
T1 sequence (P33897 whole entry): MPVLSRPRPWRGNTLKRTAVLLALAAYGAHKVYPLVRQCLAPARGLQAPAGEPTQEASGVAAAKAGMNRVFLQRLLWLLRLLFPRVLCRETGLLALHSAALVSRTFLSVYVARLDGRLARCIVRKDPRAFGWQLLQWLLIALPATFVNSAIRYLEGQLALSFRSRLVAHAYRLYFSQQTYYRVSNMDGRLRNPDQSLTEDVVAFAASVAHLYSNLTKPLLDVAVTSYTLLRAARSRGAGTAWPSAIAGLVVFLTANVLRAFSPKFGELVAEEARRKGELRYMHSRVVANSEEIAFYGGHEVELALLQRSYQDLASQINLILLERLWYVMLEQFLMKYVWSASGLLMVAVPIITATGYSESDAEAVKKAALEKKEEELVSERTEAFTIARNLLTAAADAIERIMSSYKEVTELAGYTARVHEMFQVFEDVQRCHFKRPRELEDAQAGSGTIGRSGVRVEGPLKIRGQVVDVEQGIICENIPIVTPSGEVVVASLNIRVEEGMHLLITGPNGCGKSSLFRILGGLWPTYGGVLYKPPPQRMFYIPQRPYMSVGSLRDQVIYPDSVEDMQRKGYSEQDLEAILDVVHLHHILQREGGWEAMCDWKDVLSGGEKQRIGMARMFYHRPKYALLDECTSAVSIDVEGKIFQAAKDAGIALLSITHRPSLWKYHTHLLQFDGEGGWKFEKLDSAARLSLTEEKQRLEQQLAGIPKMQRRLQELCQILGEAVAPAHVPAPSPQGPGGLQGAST
Sequence of ABCB1 (P08183 whole entry): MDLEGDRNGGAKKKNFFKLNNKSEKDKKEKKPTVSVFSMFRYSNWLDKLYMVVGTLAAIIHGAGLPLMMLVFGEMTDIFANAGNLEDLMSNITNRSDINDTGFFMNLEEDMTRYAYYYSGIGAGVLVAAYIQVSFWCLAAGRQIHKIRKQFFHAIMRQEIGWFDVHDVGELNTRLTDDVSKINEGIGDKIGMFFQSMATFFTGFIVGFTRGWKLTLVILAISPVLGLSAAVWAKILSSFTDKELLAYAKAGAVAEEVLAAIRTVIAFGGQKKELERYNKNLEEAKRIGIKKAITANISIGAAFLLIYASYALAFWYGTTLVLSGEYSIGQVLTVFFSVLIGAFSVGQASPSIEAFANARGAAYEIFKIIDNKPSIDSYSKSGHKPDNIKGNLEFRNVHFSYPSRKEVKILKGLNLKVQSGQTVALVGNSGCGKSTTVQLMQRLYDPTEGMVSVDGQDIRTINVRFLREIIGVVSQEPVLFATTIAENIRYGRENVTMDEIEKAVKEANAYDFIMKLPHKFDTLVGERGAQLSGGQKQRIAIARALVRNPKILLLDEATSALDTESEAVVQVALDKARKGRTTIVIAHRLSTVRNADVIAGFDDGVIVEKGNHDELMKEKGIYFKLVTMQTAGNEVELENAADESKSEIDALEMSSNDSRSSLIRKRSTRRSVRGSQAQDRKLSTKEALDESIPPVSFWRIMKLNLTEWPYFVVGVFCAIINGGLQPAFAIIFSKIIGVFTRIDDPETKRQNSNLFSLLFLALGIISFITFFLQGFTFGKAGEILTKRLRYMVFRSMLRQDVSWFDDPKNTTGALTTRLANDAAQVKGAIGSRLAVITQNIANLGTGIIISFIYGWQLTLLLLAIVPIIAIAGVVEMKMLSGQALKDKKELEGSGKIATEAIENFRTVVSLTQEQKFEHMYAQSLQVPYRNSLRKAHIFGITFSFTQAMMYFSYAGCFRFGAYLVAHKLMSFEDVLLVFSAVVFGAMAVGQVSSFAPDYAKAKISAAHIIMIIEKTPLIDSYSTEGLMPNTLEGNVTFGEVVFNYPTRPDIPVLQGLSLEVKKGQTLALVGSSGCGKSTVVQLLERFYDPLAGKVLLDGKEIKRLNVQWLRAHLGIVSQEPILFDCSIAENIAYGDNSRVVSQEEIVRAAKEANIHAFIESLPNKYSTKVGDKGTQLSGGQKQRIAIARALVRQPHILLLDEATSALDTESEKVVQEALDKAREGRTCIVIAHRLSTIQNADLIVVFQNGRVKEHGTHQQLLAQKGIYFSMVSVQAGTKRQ

## Cc1c2ccncc2c(C)c2c1[nH]c1ccc(OCCN(C)C)cc12 [NSC 338258]
ABCD1
  Correlation: −0.5453

## Cc1ccc(C2=CC(=O)/C(=C\C(=O)c3ccc(Br)cc3)O2)c(C)c1 [NSC 674919]
ABCC2
  Correlation: −0.4608

## COc1ccc2c(c1)-c1nn(CCCN(C)C)c3ccc([N+](=O)[O-])c(c13)N2 [NSC 627168]
ABCD1
  Correlation: −0.4599

## Nc1nc(=S)c2ncn(C3CC(O)C(CO)O3)c2[nH]1 (centres unmarked) [NSC 71851]
ABCD1
  Correlation: −0.4425

## c1ccc2c(c1)Nc1cccc3c1c-2nc1ccccc13 [NSC 670692]
ABCD1
  Correlation: −0.4001

## NC(=O)c1[nH]nc([C@@H]2O[C@H](CO)[C@@H](O)[C@H]2O)c1O [NSC 143095]
ABCD1
  Correlation: −0.5337
ABCB1
  Pearson's Correlation Coeff: 0.2763

## OCCOc1ccc(-c2cc(-c3ccccn3)nc(-c3ccccn3)c2)cc1 [NSC 640499]
ABCD1
  Correlation: −0.4694

## CCN(CC)CCCNc1ncc(C)c2c1c1ccc3c(O)cccc3c1n2C [NSC 653438]
ABCD1
  Correlation: −0.4252

## COc1cccc2c1C(=O)C=CC2=O [NSC 618315]
ABCC2
  Correlation: −0.4247

## CCCCCCCCCCCCCC(=O)NO [NSC 634458]
ABCC2
  Correlation: −0.4326

## CC(C)Cc1ccc(C(C)/C=C2\CCC(CN3CCOCC3)C2=O)cc1.Cl (centres unmarked) [NSC 639976]
ABCC2
  Correlation: −0.4670

## CN(C)CCCNc1ccc2c(=O)n(CCN(C)C)c(=O)n3c4ccccc4c(=O)c1c23 [NSC 687308]
ABCD1
  Correlation: −0.4236

## CN(C)CCC(=O)N1C/C(=C\c2ccc(Cl)c(Cl)c2)C(=O)/C(=C/c2ccc(Cl)c(Cl)c2)C1.Cl [NSC 638645]
ABCC2
  Correlation: −0.5028

## CCN(CC)CCn1ccc(=O)c2cc3c(=O)ccn(CCN(CC)CC)c3c(C)c21 [NSC 645161]
ABCD1
  Correlation: −0.5134

## O=c1cc(O)ccn1[C@@H]1O[C@H](CO)[C@@H](O)[C@H]1O [NSC 126849]
ABCD1
  Correlation: −0.4214
ABCB1
  Pearson's Correlation Coeff: 0.2357

## CC1=NN(c2nc(N)nc(CBr)n2)C(C)(C)C1 [NSC 696916]
ABCC2
  Correlation: −0.4224

## CN(C)CCCNc1ccc2nnn3c4ccc(O)cc4c(=O)c1c23 [NSC 645830]
ABCD1
  Correlation: −0.4258

## CCN(CC)CCCNc1ccc2nnn3c4ccc(O)cc4c(=O)c1c23 [NSC 645814]
ABCD1
  Correlation: −0.4346

## CC1(C)OC2C(CO[Si](C)(C)C(C)(C)C)OC(n3cnc4c(N)nc(C#C[Si](C)(C)C)nc43)C2O1 (centres unmarked) [NSC 687496]
ABCC2
  Correlation: −0.4544

## CN(O)C(=O)c1ccc(OCc2cccc(Cl)c2)cc1 [NSC 692759]
ABCD1
  Correlation: −0.5034
ABCB1
  Pearson's Correlation Coeff: 0.4149

## Cc1c2ccncc2c(C)c2c1[nH]c1ccccc12 [NSC 71795]
ABCD1
  Correlation: −0.4642

## CCCCCCOc1ccc(C(=O)NO)cc1 [NSC 692754]
ABCD1
  Correlation: −0.4680
ABCC2
  Correlation: −0.4016
ABCB1
  Pearson's Correlation Coeff: 0.4616

## O=C1/C(=C/c2ccc(F)cc2)CNC/C1=C\c1ccc(F)cc1 [NSC 685126]
ABCD1
  Correlation: −0.4464

## CCOC(=O)c1oc2cc3c(c4c2c1-c1ccccc1N4C)C=CC(C)(C)O3 [NSC 693215]
ABCC2
  Correlation: −0.4377

## COc1ccc2[nH]c3c(C)c4ccncc4c(C)c3c2c1 [NSC 69187]
ABCD1
  Correlation: −0.5711

## CC(C)Cc1ccc(C(C)/C=C2\CCC(CN3CCCCC3)C2=O)cc1.Cl (centres unmarked) [NSC 639978]
ABCC2
  Correlation: −0.5210

## CC(C)=CCC[C@@H](C)C1=C(O)C(Nc2ccccc2)=C(C)C(=O)C1=O [NSC697129]
ABCB1
  Correlation of antiproliferative activity with ABCB1 expression: 0.4663
  Pearson's Correlation Coeff: 0.4854

## Nc1nc(N)c2cc(CNc3ccc(C(=O)NC(CC(=O)O)C(=O)O)c(Cl)c3)ccc2n1 (centres unmarked) [NSC134033]
ABCB1
  Pearson's Correlation Coeff: 0.2800

## CCc1nc(N)nc(N)c1-c1ccc(NCCc2ccccc2)c([N+](=O)[O-])c1 [NSC382049]
ABCB1
  Pearson's Correlation Coeff: 0.3279

## C=C(C)[C@@H]1CCc2c(O)c(O)c(=O)cc(C)c2C1 [NSC 310618]
ABCB1
  Correlation of antiproliferative activity with ABCB1 expression: 0.3698

## CCNc1nnc(-c2ccccc2Nc2ccccc2-c2nnc(NCC)s2)s1 [NSC698459]
ABCB1
  Pearson's Correlation Coeff: 0.3095

## CC(C)=CCC[C@@H](C)C1=C(O)C(=O)C(C)=C(NC(C)c2ccccc2)C1=O (some centres unmarked) [NSC697137]
ABCB1
  Correlation of antiproliferative activity with ABCB1 expression: 0.4295
  Pearson's Correlation Coeff: 0.3828

## CN(C)CCNc1ccc2nnn3c4ccc(Cl)cc4c(=O)c1c23 [NSC645818]
ABCB1
  Pearson's Correlation Coeff: 0.3377

## CN(C)c1ccc(/C=C2\C[N+](C)(C)C/C(=C\c3ccc(N(C)C)cc3)C2=O)cc1.[I-] [NSC 618757]
ABCB1
  Correlation: −0.6081

## COc1ccc2c(c1)c(=O)c1c(NCCCN(C)C)ccc3ncn2c31.Cl [NSC 645813]
ABCD1
  Correlation: −0.4824

## Nc1ccn([C@@H]2C=C(CO)[C@@H](O)[C@H]2O)c(=O)n1 [NSC375575]
ABCB1
  Pearson's Correlation Coeff: 0.2400

## O=C1CSc2sc(=S)sc2S1 [NSC 627451]
ABCB1
  Correlation of antiproliferative activity with ABCB1 expression: 0.3894

## CC(C)OC(=O)c1ccc(CCC2=CC(=O)C=CC2=O)cc1 [NSC 684496]
ABCC2
  Correlation: −0.4340

## CCCOc1cc2c(cc1O)CC[C@@H]1[C@@H]2CC[C@]2(C)[C@@H](O)CC[C@@H]12 [NSC671041]
ABCB1
  Pearson's Correlation Coeff: 0.2610

## Cc1cc(N(CCOS(C)(=O)=O)CCOS(C)(=O)=O)ccc1C=Nc1ccc(-c2nc(Cc3ccccc3)sc2C)cc1 [NSC281817]
ABCB1
  Pearson's Correlation Coeff: 0.2646

## CC(=O)O[C@H]1C#C/C=C\C#CC[C@@H]2C(=O)N(C(=O)OC(C)(C)C)[C@@H]12 [NSC697686]
ABCB1
  Pearson's Correlation Coeff: 0.2297

## CN(C)c1nc(N(C)C)nc(N(C)C)n1 [NSC 13875]
ABCB1
  Correlation of antiproliferative activity with ABCB1 expression: 0.4856

## Cc1c2cnccc2c(C)c2c1c1ccccc1n2CCOC(=O)c1ccccc1 [NSC163443]
ABCB1
  Pearson's Correlation Coeff: 0.2891

## CCc1nc(N)nc(N)c1-c1ccc(NC)c([N+](=O)[O-])c1 [NSC382034]
ABCB1
  Pearson's Correlation Coeff: 0.3302

## CC(C)=CCC[C@@H](C)C1=C(O)C(Nc2ccccc2Cl)=C(C)C(=O)C1=O [NSC 697132]
ABCB1
  Correlation of antiproliferative activity with ABCB1 expression: 0.3558

## COc1cc2c(c(O)c1O)-c1ccc(OC)c(=O)cc1C(NC(C)=O)CC2 (centres unmarked) [NSC 354975]
ABCB1
  Correlation: −0.6043

## COc1ccc(-c2oc3cc(O)c(OC)c(O)c3c(=O)c2O)cc1 [NSC641548]
ABCB1
  Pearson's Correlation Coeff: 0.2632

## COc1cc(/C=C2\CCC(CN(C)C)C2=O)ccc1OC(=O)c1ccccc1.Cl (centres unmarked) [NSC 639518]
ABCC2
  Correlation: −0.4350

## O=C1Sc2sc(=S)sc2SC1c1ccccc1 (centres unmarked) [NSC 627452]
ABCB1
  Correlation of antiproliferative activity with ABCB1 expression: 0.3534

## Cc1c(-c2ccc(-c3ccccc3F)cc2)nc2ccc(F)cc2c1C(=O)O [NSC368390]
ABCB1
  Pearson's Correlation Coeff: 0.2331

## CCCOc1ccc(-c2nc(-c3ccc(N=Cc4ccc(N(CCOS(C)(=O)=O)CCOS(C)(=O)=O)cc4C)cc3)cs2)cc1 [NSC281818]
ABCB1
  Pearson's Correlation Coeff: 0.2476

## CCCCc1[nH]ccc2c(C)c3nc4ccccc4c3cc12 [NSC142055]
ABCB1
  Pearson's Correlation Coeff: 0.3935

## COC(=O)[C@@]12C(=O)C=CC(=O)[C@@H]1C1C(=CC2COC(C)=O)O[C@@H]2OC3(CCCCC3)O[C@H]12 (some centres unmarked) [NSC 637399]
ABCC2
  Correlation: −0.4969

## CCCCCCOc1ccc(C(=O)N(C)O)cc1 [NSC 692758]
ABCD1
  Correlation: −0.5012
ABCB1
  Pearson's Correlation Coeff: 0.4825

## CCN(CC)CCNc1ccc2ncn3c4ccc(OC)cc4c(=O)c1c23 [NSC 645812]
ABCD1
  Correlation: −0.4825

## NC(=O)NO [NSC32065]
ABCB1
  Pearson's Correlation Coeff: 0.3336

## CCN(CC)CC[n+]1ccc2c(C)c3[nH]c4ccccc4c3c(C)c2c1 [NSC 359449]
ABCB1
  Correlation: −0.7108
